Biological target: T1, human SARM1(50-724) (Homo sapiens, UniProt Q6SZW1)
T1 construct: 40 nM human SARM1(50-724)
T1 sequence (Q6SZW1 50-724): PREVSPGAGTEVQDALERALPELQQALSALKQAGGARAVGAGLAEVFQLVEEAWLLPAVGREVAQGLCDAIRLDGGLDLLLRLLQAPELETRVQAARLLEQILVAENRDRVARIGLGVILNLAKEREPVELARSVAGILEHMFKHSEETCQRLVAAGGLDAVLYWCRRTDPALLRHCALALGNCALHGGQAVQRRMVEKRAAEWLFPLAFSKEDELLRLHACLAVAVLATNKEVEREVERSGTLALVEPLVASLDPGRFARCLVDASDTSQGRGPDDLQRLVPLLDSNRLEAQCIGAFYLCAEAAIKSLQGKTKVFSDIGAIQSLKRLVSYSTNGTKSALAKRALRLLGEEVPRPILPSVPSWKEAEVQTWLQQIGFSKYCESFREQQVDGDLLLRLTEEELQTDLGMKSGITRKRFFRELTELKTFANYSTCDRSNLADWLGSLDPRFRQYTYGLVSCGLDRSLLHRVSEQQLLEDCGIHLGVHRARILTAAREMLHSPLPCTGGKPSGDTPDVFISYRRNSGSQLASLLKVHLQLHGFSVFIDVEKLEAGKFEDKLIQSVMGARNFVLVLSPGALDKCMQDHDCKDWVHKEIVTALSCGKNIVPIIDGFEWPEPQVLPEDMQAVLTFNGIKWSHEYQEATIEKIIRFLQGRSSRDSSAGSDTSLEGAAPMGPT
Assay: SARM1 NADase biochemical assay (HPLC of NAD and NAM)
Conditions: 40 nM human SARM1(50-724), 0.3 mM NMN, 20 μM NAD, 60 minutes room temperature; dose-response from 100 μM, 1:3 dilution
In short: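 Human SARM1(50-724) at 40 nM with 0.3 mM NMN, 20 μM NAD, 1 mM TCEP in 25 mM HEPES pH 7.4, 10 mM KCl, 10 mM MgCl2, 1% DMSO; 60 min at room temperature, formic acid quench. NAD and NAM quantified by reverse-phase HPLC peak area; single point 50 μM or 1:3 series from 100 μM.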

Row | SMILES | IC50 [nM]
1 | Cc1cnccc1-c1n[nH]c(NC(=O)CCc2cc(F)c(C#N)c(F)c2)c1C [Example 113] | 1000 to 10000
2 | Cc1c(-c2ccncc2)n[nH]c1NC(=O)N[C@H](C)c1ccc(Cl)cc1 [Example 148, (R)-1-(1-(4-Chlorophenyl)ethyl)-3-(4-methyl-3-(pyridin-4-yl)-1H-pyrazol-5-yl)urea] | 1000 to 10000
3 | O=C(CCc1cc(F)c(Cl)c(F)c1)Nc1[nH]nc(-c2ccncc2)c1CO [Example 117, 3-(4-Chloro-3,5-difluorophenyl)-N-(4-(hydroxymethyl)-3-(pyridin-4-yl)-1H-pyrazol-5-yl)propanamide] | < 1000
4 | N[C@@H](Cc1ccc(Cl)cc1)C(=O)Nc1cc(-c2ccncc2)n[nH]1 [Example 153, (S)-2-Amino-3-(4-chlorophenyl)-N-(3-(pyridin-4-yl)-1H-pyrazol-5-yl)propanamide] | < 1000
5 | Cc1c(NC(=O)CSc2ccc(Cl)cc2)cnn1-c1ccncc1 [Example 81, 2-((4-Chlorophenyl)thio)-N-(5-methyl-1-(pyridin-4-yl)-1H-pyrazol-4-yl)acetamide] | < 1000
6 | Cc1c(NC(=O)C(O)Cc2ccc(Cl)cc2)cnn1-c1ccncc1 (racemic) [Example 150, (rac)-3-(4-Chlorophenyl)-2-hydroxy-N-(5-methyl-1-(pyridin-4-yl)-1H-pyrazol-4-yl)propanamide] | 1000 to 10000
7 | Cc1c(-c2ccncc2)n[nH]c1N(C(=O)CCc1ccc(Cl)cc1)C(=O)CCc1ccc(Cl)cc1 [Example 3, 3-(4-Chlorophenyl)-N-(3-(4-chlorophenyl)propanoyl)-N-(4-methyl-3-(pyridin-4-yl)-1H-pyrazol-5-yl)propanamide] | < 1000
8 | O=C(CCc1ccc(Cl)cc1)Nc1cnn(-c2ccncc2)c1Cl [Example 90] | < 1000
9 | O=C1N(Cc2ccc(Cl)cc2)CCCN1c1cnn(-c2ccncc2)c1 [Example 159, 1-(4-Chlorobenzyl)-3-(1-(pyridin-4-yl)-1H-pyrazol-4-yl)tetrahydropyrimidin-2(1H)-one] | 1000 to 10000
10 | O=C(NCc1cc(F)c(F)c(F)c1)Nc1cc(-c2ccncc2)n[nH]1 [Example 164, 1-(3-(Pyridin-4-yl)-1H-pyrazol-5-yl)-3-(3,4,5-trifluorobenzyl)urea] | < 1000
11 | S=C(NCc1ccc(Cl)cc1)Nc1cnn(-c2ccncc2)c1 [Example 160, 1-(4-Chlorobenzyl)-3-(1-(pyridin-4-yl)-1H-pyrazol-4-yl)thiourea] | 1000 to 10000
12 | N#Cc1c(F)cc(CCC(=O)Nc2cnn(-c3ccncc3)c2Cl)cc1F [Example 93, N-(5-Chloro-1-(pyridin-4-yl)-1H-pyrazol-4-yl)-3-(4-cyano-3,5-difluorophenyl)propanamide] | < 1000
13 | O=C(CCc1cc(F)c(F)c(F)c1)Nc1cnn(-c2ccncc2)c1Cl [Example 92, N-(5-Chloro-1-(pyridin-4-yl)-1H-pyrazol-4-yl)-3-(3,4,5-trifluorophenyl)propanamide] | < 1000
14 | Cc1c(NC(=O)CCc2cc(F)c(Cl)c(F)c2)cnn1-c1ccncc1 [Example 83, 3-(4-Chloro-3,5-difluorophenyl)-N-(5-methyl-1-(pyridin-4-yl)-1H-pyrazol-4-yl)propanamide] | < 1000
15 | Cc1cnccc1-c1cc(NC(=O)CCc2ccc(Cl)cc2)[nH]n1 [Example 106, 3-(4-Chlorophenyl)-N-(3-(3-methylpyridin-4-yl)-1H-pyrazol-5-yl)propanamide] | < 1000
16 | O=C(CCc1ccc(Cl)cc1)Nc1cnn(-c2ccncc2)c1C(F)(F)F [Example 95, 3-(4-Chlorophenyl)-N-(1-(pyridin-4-yl)-5-(trifluoromethyl)-1H-pyrazol-4-yl)propanamide] | < 1000
17 | Cc1c(-c2ccncc2)n[nH]c1N1CCC(c2ccc(Cl)cc2)CC1=O (centres unmarked) [Example 138, 4-(4-Chlorophenyl)-1-(4-methyl-3-(pyridin-4-yl)-1H-pyrazol-5-yl)piperidin-2-one] | < 1000
18 | Cc1c(NC(=O)NCc2ccc(Cl)cc2)cnn1-c1ccncc1 [Example 144, 1-(4-Chlorobenzyl)-3-(5-methyl-1-(pyridin-4-yl)-1H-pyrazol-4-yl)urea] | < 1000
19 | O=C(NCc1cc(F)c(Cl)c(F)c1)Nc1cc(-c2ccncc2)n[nH]1 [Example 163, 1-(4-Chloro-3,5-difluorobenzyl)-3-(3-(pyridin-4-yl)-1H-pyrazol-5-yl)urea] | < 1000
20 | Cc1c(NC(=S)CCc2ccc(Cl)cc2)cnn1-c1ccncc1 [Example 137, 3-(4-Chlorophenyl)-N-(5-methyl-1-(pyridin-4-yl)-1H-pyrazol-4-yl)propanethioamide] | 1000 to 10000
21 | O=C(CCc1cccc(Cl)c1)Nc1cnn(-c2ccncc2)c1Cl [Example 126, N-[5-Chloro-1-(pyridin-4-yl)-1H-pyrazol-4-yl]-3-(3-chlorophenyl)propanamide] | 1000 to 10000
22 | O=C(CCc1ccc(Cl)cc1)Nc1cnn(-c2ccncc2)c1 [Example 89, 3-(4-Chlorophenyl)-N-(1-(pyridin-4-yl)-1H-pyrazol-4-yl)propanamide] | 1000 to 10000
23 | Cc1c(-c2ccncc2)n[nH]c1NC(=O)NCc1ccc(F)cc1 [Example 142, 1-[(4-Fluorophenyl)methyl]-3-[4-methyl-3-(pyridin-4-yl)-1H-pyrazol-5-yl]urea] | < 1000
24 | O=C(CCc1cc(F)c(F)c(F)c1)Nc1[nH]nc(-c2ccncc2)c1CO [Example 119] | < 1000

Second part, the compound after the results:

Row | IC50 [nM] | SMILES
25 | < 1000 | Cc1ccc(CCC(=O)Nc2[nH]nc(-c3ccncc3)c2C)cc1 [Example 24, N-(4-Methyl-3-(pyridin-4-yl)-1H-pyrazol-5-yl)-3-(p-tolyl)propanamide]
26 | < 1000 | Cc1c(-c2ccncc2)n[nH]c1NC(=O)CCc1ccc(Br)cc1 [Example 35, 3-(4-Bromophenyl)-N-(4-methyl-3-(pyridin-4-yl)-1H-pyrazol-5-yl)propanamide]
27 | < 1000 | Cc1c(-c2ccncc2)n[nH]c1NC(=O)CC1CCc2cc(Cl)ccc21 (centres unmarked) [Example 67, 2-(5-Chloro-2,3-dihydro-1H-inden-1-yl)-N-[4-methyl-3-(pyridin-4-yl)-1H-pyrazol-5-yl]acetamide]
28 | < 1000 | CCc1c(-c2ccncc2)n[nH]c1NC(=O)CCc1ccc(Cl)cc1 [Example 14, 3-(4-Chlorophenyl)-N-(4-ethyl-3-(pyridin-4-yl)-1H-pyrazol-5-yl)propanamide]
29 | < 1000 | Cc1c(-c2ccncc2)n[nH]c1NC(=O)CCc1ccc(I)cc1 [Example 46, 3-(4-Iodophenyl)-N-(4-methyl-3-(pyridin-4-yl)-1H-pyrazol-5-yl)propanamide]
30 | < 1000 | Cc1c(-c2ccncc2)n[nH]c1NC(=O)CCc1cnc(Cl)s1 [Example 75, 3-(2-Chlorothiazol-5-yl)-N-(4-methyl-3-(pyridin-4-yl)-1H-pyrazol-5-yl)propanamide]
31 | < 1000 | Cc1c(-c2ccncc2)n[nH]c1NC(=O)CCc1ccc(OC(F)F)cc1 [Example 55, 3-(4-(Difluoromethoxy)phenyl)-N-(4-methyl-3-(pyridin-4-yl)-1H-pyrazol-5-yl)propanamide]
32 | < 1000 | N#Cc1c(F)cc(CCC(=O)Nc2[nH]nc(-c3ccncc3)c2Cl)cc1F [Example 128]
33 | < 1000 | COc1c(-c2ccncc2)n[nH]c1NC(=O)CCc1ccc(Cl)cc1 [Example 122, 3-(4-Chlorophenyl)-N-(4-methoxy-3-(pyridin-4-yl)-1H-pyrazol-5-yl)propanamide]
34 | < 1000 | O=C(CCc1ccc(Cl)cc1)Nc1[nH]nc(-c2ccncc2)c1CO [Example 116, 3-(4-Chlorophenyl)-N-(4-(hydroxymethyl)-3-(pyridin-4-yl)-1H-pyrazol-5-yl)propanamide]
35 | < 1000 | Cc1cc(CCC(=O)Nc2[nH]nc(-c3ccncc3)c2C)ccc1Cl [Example 43, 3-(4-Chloro-3-methylphenyl)-N-(4-methyl-3-(pyridin-4-yl)-1H-pyrazol-5-yl)propanamide]
36 | < 1000 | Cc1c(-c2ccncc2)n[nH]c1NC(=O)CCc1cnc(F)nc1 [Example 60, 3-(2-Fluoropyrimidin-5-yl)-N-(4-methyl-3-(pyridin-4-yl)-1H-pyrazol-5-yl)propanamide]
37 | < 1000 | C#Cc1ccc(CCC(=O)Nc2[nH]nc(-c3ccncc3)c2C)cc1 [Example 140]
38 | < 1000 | Cc1c(-c2ccncc2)n[nH]c1NC(=O)CCc1ccc(F)cc1 [Example 33, 3-(4-Fluorophenyl)-N-(4-methyl-3-(pyridin-4-yl)-1H-pyrazol-5-yl)propanamide]
39 | < 1000 | N#Cc1ccc(CCC(=O)Nc2[nH]nc(-c3ccncc3)c2Cl)cc1F [Example 129]
40 | < 1000 | Cc1c(-c2ccncc2)n[nH]c1NC(=O)CCc1ccc(F)nc1 [Example 59, 3-(6-Fluoropyridin-3-yl)-N-(4-methyl-3-(pyridin-4-yl)-1H-pyrazol-5-yl)propanamide]
41 | < 1000 | O=C(CCc1ccc(Cl)cc1)Nc1[nH]nc(-c2ccncc2)c1Br [Example 147, N-(4-Bromo-3-(pyridin-4-yl)-1H-pyrazol-5-yl)-3(4-chlorophenyl)propanamide]

Reference: patent US12404265B2, “Substituted pyridine derivatives as SARM1 inhibitors” (Nura Bio, Inc., priority 2020, dated 2025)
